This note sets out measurements from patent US20250074873A1, “COMPOUNDS” (Psylo Pty Ltd, priority 2021, published 2025).

What all share (assay type): cell-based
The target in one experiment is T1, 5-HT2A receptor (Homo sapiens, UniProt P28223).
T1 construct: host or cells: HEK293
Briefly: FLIPR Ca2+ flux functional assay, 5-HT2A agonist activity. As to conditions: for Emax: agonist activity, Ca2+ flux, stably transfected HEK293 cells. The protocol:
(§1) Functional Assays 5-HT2A, 5-HT2B and 5-HT2C Receptors
(§2) Activity at 5-HT2A, 5-HT2B and 5-HT2C receptors was determined using a FLIPR Ca2+ flux assay at WuXi AppTec Co. Ltd. (Hong Kong) Discovery Biology Unit according to their standard protocols. Briefly, stably transfected cells expressing the receptor of interest (HEK293 for 5-HT2A and 5-HT2C; CHO-K1 for 5-HT2B) were grown and plated in a 384 well plate and incubated at 37° C. and 5% 002 overnight. A 250 mM stock solution of probenecid in FLIPR calcium assay buffer (10 mL) was freshly prepared and combined with a fluorescent dye (Fluo-4 Direct) to give a final assay concentration of 2.5 mM. Reference compounds were 4-fold serially diluted and the screening compounds were 3-fold serially diluted in 100% DMSO for 10 points using Agilent Bravo, and 750 nL was added to a 384 well compound plate using Echo along with 30 μL assay buffer. The fluorescent dye was then added to the assay plate along with assay buffer to a final volume of 40 μL. The cell plate was incubated for […] at 37° C. and 5% 002 and placed into the FLIPR Tetra along with the compound plate. 10 μL of references and compounds were then transferred from the compound plate into the cell plate and the fluorescent signal was read.
(In general: Calcium flux is commonly read through the fluorescence of an indicator in the cells.)

The target in a further experiment is T2, 5-HT2B receptor (Homo sapiens, UniProt P41595).
T2 construct: host or cells: CHO-K1
Briefly: FLIPR Ca2+ flux functional assay, 5-HT2B agonist activity. The conditions noted are these: for Emax: agonist activity, Ca2+ flux, stably transfected CHO-K1 cells. Here is the method: as §1, §2

Another experiment addresses T3, 5-HT2C receptor (Homo sapiens, UniProt P28335).
T3 construct: host or cells: HEK293
T3 sequence (P28335 33-458): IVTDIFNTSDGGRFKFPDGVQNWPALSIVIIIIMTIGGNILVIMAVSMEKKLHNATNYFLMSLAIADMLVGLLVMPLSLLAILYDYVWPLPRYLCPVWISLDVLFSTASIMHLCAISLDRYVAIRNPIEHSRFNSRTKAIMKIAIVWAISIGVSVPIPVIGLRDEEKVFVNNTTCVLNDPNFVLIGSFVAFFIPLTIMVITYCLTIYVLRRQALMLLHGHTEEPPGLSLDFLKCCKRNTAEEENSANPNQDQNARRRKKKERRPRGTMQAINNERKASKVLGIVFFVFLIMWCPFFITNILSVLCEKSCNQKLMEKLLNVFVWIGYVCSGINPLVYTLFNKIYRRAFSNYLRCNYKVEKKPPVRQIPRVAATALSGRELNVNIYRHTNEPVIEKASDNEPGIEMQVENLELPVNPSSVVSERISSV
Briefly: FLIPR Ca2+ flux functional assay, 5-HT2C agonist activity. The conditions noted are these: for Emax: agonist activity, Ca2+ flux, stably transfected HEK293 cells. The protocol: as §1, §2

By EC50 is commonly meant the midpoint of the concentration-response curve. As a reminder, the Emax is the greatest response seen or fitted, relative to the assay's reference.

T2 sequence (P41595 whole entry): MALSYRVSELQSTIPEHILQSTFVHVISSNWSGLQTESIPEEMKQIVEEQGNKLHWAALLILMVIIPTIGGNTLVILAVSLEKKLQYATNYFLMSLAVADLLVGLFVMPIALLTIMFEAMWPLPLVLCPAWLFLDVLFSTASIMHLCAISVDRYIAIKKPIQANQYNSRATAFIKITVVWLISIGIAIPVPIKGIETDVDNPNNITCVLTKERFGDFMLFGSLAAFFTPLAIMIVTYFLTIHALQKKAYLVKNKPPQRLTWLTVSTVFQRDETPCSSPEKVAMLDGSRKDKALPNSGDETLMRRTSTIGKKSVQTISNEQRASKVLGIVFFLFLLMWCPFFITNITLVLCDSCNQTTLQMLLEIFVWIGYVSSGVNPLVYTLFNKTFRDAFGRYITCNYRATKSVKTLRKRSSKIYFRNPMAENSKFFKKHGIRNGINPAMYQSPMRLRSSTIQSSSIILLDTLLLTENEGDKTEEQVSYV
T1 sequence (P28223 whole entry): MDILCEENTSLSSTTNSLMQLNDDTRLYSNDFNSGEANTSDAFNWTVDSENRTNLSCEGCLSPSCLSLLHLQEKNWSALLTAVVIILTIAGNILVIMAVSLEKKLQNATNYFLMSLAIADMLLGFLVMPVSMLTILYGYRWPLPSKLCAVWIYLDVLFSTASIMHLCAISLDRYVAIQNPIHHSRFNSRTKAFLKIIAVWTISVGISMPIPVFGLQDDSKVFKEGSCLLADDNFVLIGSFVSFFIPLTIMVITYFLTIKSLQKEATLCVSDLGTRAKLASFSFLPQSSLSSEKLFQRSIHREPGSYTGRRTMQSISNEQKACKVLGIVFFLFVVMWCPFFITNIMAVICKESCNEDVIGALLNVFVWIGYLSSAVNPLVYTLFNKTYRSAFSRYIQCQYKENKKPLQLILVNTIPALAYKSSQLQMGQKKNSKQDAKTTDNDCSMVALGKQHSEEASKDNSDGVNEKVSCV

As to `CN(C)CCc1c[nH]c2cccc(OC(F)(F)F)c12` [Compound P-4, N,N-dimethyl-2-(4-(trifluoromethoxy)-1H-indol-3-yl)ethan-1-amine], the EC50 on 5-HT2A receptor was 52.8 nM; at 5-HT2B receptor, above 10000 nM; on 5-HT2C receptor, 15.9 nM. The Emax is 34.6% on 5-HT2A receptor, -0.97% at 5-HT2B receptor and 66.6% at 5-HT2C receptor.

Regarding `CN(C)CCc1c[nH]c2ccc(OC(F)(F)F)cc12` [Compound P-5, N,N-dimethyl-2-(5-(trifluoromethoxy)-1H-indol-3-yl)ethan-1-amine], the EC50 at 5-HT2A receptor was 171 nM; at 5-HT2B receptor it was above 10000 nM; on 5-HT2C receptor, 520 nM. The Emax at 5-HT2A receptor was 40.5%; on 5-HT2B receptor it was -0.27%; at 5-HT2C receptor it was 55.1%.

Regarding `CN(C)CCc1c[nH]c2ccc(C(F)(F)F)cc12` [Compound P-15, N,N-dimethyl-2-(5-(trifluoromethyl)-1H-indol-3-yl)ethan-1-amine], the EC50 at 5-HT2A receptor was 186 nM; at 5-HT2B receptor, above 10000 nM; at 5-HT2C receptor, 89.7 nM. The Emax at 5-HT2A receptor came to 28.7%; at 5-HT2B receptor it was 7.41%; on 5-HT2C receptor it was 88.8%.

Turning to `CCC(C)N(C)CCc1c[nH]c2ccc(OC)cc12` (stereo not drawn) [Compound P-16, N-(2-(5-methoxy-1H-indol-3-yl)ethyl)-N-methylbutan-2-amine], the concentration for a half-maximal effect (EC50) at 5-HT2A receptor was 36.9 nM; at 5-HT2B receptor it was above 10000 nM; on 5-HT2C receptor, 553 nM. For the same compound, the Emax is 58.5% on 5-HT2A receptor, -1.2% at 5-HT2B receptor and 59.5% on 5-HT2C receptor.

As to `CCCN(CCc1c[nH]c2ccc(OC)cc12)C(C)C` [Compound P-17, N-isopropyl-N-(2-(5-methoxy-1H-indol-3-yl)ethyl)propan-1-amine], the values for the concentration for a half-maximal effect (EC50) at 5-HT2A receptor, at 5-HT2B receptor and on 5-HT2C receptor were 13.8 nM, 138 nM and 185 nM, respectively. Moreover, the Emax on 5-HT2A receptor came to 89%; at 5-HT2B receptor, 69.2%; at 5-HT2C receptor, 82.1%.

As to `CCN(CCc1c[nH]c2ccc(OC)cc12)CC(C)C` [Compound P-18, N-ethyl-N-(2-(5-methoxy-1H-indol-3-yl)ethyl)-2-methylpropan-1-amine], the EC50 at 5-HT2A receptor stood at 47.9 nM; on 5-HT2B receptor it was 867 nM; at 5-HT2C receptor, 1130 nM. Besides, the values for the Emax at 5-HT2A receptor, on 5-HT2B receptor and on 5-HT2C receptor were 79.5%, 51.8% and 68.9%, respectively.

Turning to `CCC(C)N(CC)CCc1c[nH]c2ccc(OC)cc12` (stereo not drawn) [Compound P-19, N-ethyl-N-(2-(5-methoxy-1H-indol-3-yl)ethyl)butan-2-amine], the results for the half-maximal effective concentration (EC50) on 5-HT2A receptor, at 5-HT2B receptor and at 5-HT2C receptor were 33.3 nM, 1400 nM and 933 nM, respectively. Further, the Emax worked out at 70.3% at 5-HT2A receptor, 44.5% at 5-HT2B receptor and 76.8% on 5-HT2C receptor.

As to `CCC(C)N(C)CCc1c[nH]c2ccccc12` (stereo not drawn) [Compound P-20, N-(2-(1H-indol-3-yl)ethyl)-N-methylbutan-2-amine], the EC50 on 5-HT2A receptor is 91.2 nM; at 5-HT2B receptor it was above 10000 nM; on 5-HT2C receptor, 646 nM. The Emax on 5-HT2A receptor came to 16.1%; on 5-HT2B receptor it was 0.83%; on 5-HT2C receptor it was 58.8%.

For the compound `CCC(C)N(CC)CCc1c[nH]c2ccccc12` (stereo not drawn) [Compound P-21, N-(2-(1H-indol-3-yl)ethyl)-N-ethylbutan-2-amine], the half-maximal effective concentration (EC50) on 5-HT2A receptor is 148 nM; at 5-HT2B receptor it was above 10000 nM; on 5-HT2C receptor, 974 nM. Also, the values for the Emax at 5-HT2A receptor, on 5-HT2B receptor and at 5-HT2C receptor were 71.5%, 37.2% and 61.5%, respectively.

For the compound `CCN(CCc1c[nH]c2ccccc12)CC(C)C` [Compound P-22, N-(2-(1H-indol-3-yl)ethyl)-N-ethyl-2-methylpropan-1-amine], the figures for the half-maximal effective concentration (EC50) on 5-HT2A receptor, on 5-HT2B receptor and at 5-HT2C receptor were 389 nM, 1140 nM and 960 nM, respectively. In addition, the values for the Emax on 5-HT2A receptor, at 5-HT2B receptor and at 5-HT2C receptor were 52.8%, 28% and 58.4%, respectively.

Regarding `CCC(C)N(C)CCc1c[nH]c2cccc(OC)c12` (stereo not drawn) [Compound P-23, N-(2-(4-methoxy-1H-indol-3-yl)ethyl)-N-methylbutan-2-amine], the EC50 at 5-HT2A receptor is 124 nM; on 5-HT2B receptor, above 10000 nM; on 5-HT2C receptor, 465 nM. The Emax at 5-HT2A receptor is 50.3%; on 5-HT2B receptor it was -0.21%; on 5-HT2C receptor it was 21.7%.

`CCC(C)N(CC)CCc1c[nH]c2cccc(OC)c12` (stereo not drawn) [Compound P-24, N-ethyl-N-(2-(4-methoxy-1H-indol-3-yl)ethyl)butan-2-amine]: the concentration giving a half-maximal response (EC50) on 5-HT2A receptor is 70.2 nM; at 5-HT2B receptor, 444 nM; at 5-HT2C receptor it was 964 nM. In addition, the Emax at 5-HT2A receptor worked out at 77.7%; at 5-HT2B receptor, 52.6%; at 5-HT2C receptor it was 68.6%.

`CCN(CCc1c[nH]c2cccc(OC)c12)C(C)C` [Compound P-25, N-ethyl-N-(2-(4-methoxy-1H-indol-3-yl)ethyl)propan-2-amine]: the EC50 was 121 nM on 5-HT2A receptor, 459 nM at 5-HT2B receptor and 676 nM at 5-HT2C receptor. Besides, the Emax was found to be 85.9% at 5-HT2A receptor, 61.4% at 5-HT2B receptor and 77.8% on 5-HT2C receptor.

On to `CCCN(CCc1c[nH]c2cccc(OC)c12)C(C)C` [Compound P-26, N-isopropyl-N-(2-(4-methoxy-1H-indol-3-yl)ethyl)propan-1-amine], for which the values for the concentration for a half-maximal effect (EC50) on 5-HT2A receptor, on 5-HT2B receptor and on 5-HT2C receptor were 36.5 nM, 103 nM and 106 nM, respectively. Moreover, the Emax on 5-HT2A receptor turned out to be 81.6%; at 5-HT2B receptor, 96%; at 5-HT2C receptor it was 87.1%.

On to `CCCN(C)CCc1c[nH]c2ccc(OC(F)(F)F)cc12` [Compound P-34, N-methyl-N-(2-(5-(trifluoromethoxy)-1H-indol-3-yl)ethyl)propan-1-amine], for which the EC50 is 665 nM on 5-HT2A receptor, above 10000 nM at 5-HT2B receptor and 329 nM at 5-HT2C receptor. Further, the Emax on 5-HT2A receptor came out at 53.7%; at 5-HT2B receptor, 18.9%; on 5-HT2C receptor, 81.7%.

On to `Cc1cccc2[nH]cc(CCN(C)C(C)C)c12` [Compound P-42, N-methyl-N-(2-(4-methyl-1H-indol-3-yl)ethyl)propan-2-amine], for which the EC50 came out at 39.6 nM at 5-HT2A receptor, 814 nM on 5-HT2B receptor and 48.6 nM on 5-HT2C receptor. Besides, the Emax was determined as 94.7% on 5-HT2A receptor, 41.4% on 5-HT2B receptor and 91.2% at 5-HT2C receptor.

As for `COc1cccc2[nH]cc(CCN(C)CC(C)C)c12` [Compound P-136, N-(2-(4-methoxy-1H-indol-3-yl)ethyl)-N,2-dimethylpropan-1-amine], the EC50 on 5-HT2A receptor is 91.5 nM; at 5-HT2B receptor, above 10000 nM; on 5-HT2C receptor, 261 nM. The results for the Emax on 5-HT2A receptor, on 5-HT2B receptor and on 5-HT2C receptor were 100%, -1.63% and 78.5%, respectively.

In the case of `CCN(CCc1c[nH]c2cccc(OC)c12)CC(C)C` [Compound P-137, N-ethyl-N-(2-(4-methoxy-1H-indol-3-yl)ethyl)-2-methylpropan-1-amine], the values for the EC50 on 5-HT2A receptor, at 5-HT2B receptor and on 5-HT2C receptor were 85.6 nM, above 10000 nM and 138 nM, respectively. The Emax is 95.8% on 5-HT2A receptor, 19.4% on 5-HT2B receptor and 96.2% at 5-HT2C receptor.

Take `CCN(CCc1c[nH]c2cccc(O)c12)C(C)C` [Compound P-138, 3-(2-(ethyl(isopropyl)amino)ethyl)-1H-indol-4-ol]: the concentration giving a half-maximal response (EC50) on 5-HT2A receptor turned out to be 19.9 nM; on 5-HT2B receptor, 322 nM; at 5-HT2C receptor, 862 nM. In addition, the Emax at 5-HT2A receptor is 105%; on 5-HT2B receptor, 53.5%; at 5-HT2C receptor, 83.3%.

For the compound `CCC(C)N(CC)CCc1c[nH]c2cccc(O)c12` (stereo not drawn) [Compound P-139, 3-(2-(sec-butyl(ethyl)amino)ethyl)-1H-indol-4-ol], the 50% effective concentration (EC50) was 54 nM at 5-HT2A receptor, above 10000 nM on 5-HT2B receptor and 1900 nM at 5-HT2C receptor. Also, the Emax at 5-HT2A receptor is 107%; on 5-HT2B receptor, 15.7%; at 5-HT2C receptor, 55.2%.

Regarding `CCN(CCc1c[nH]c2cccc(O)c12)CC(C)C` [Compound P-140, 3-(2-(ethyl(isobutyl)amino)ethyl)-1H-indol-4-ol], the EC50 on 5-HT2A receptor was 27.7 nM; at 5-HT2B receptor it was above 10000 nM; at 5-HT2C receptor it was 992 nM. Also, the Emax on 5-HT2A receptor is 97.5%; at 5-HT2B receptor, 17.5%; at 5-HT2C receptor it was 95.4%.
